From patent publication US20020065317A1, “Calcium salt compositions having improved solubility and method for preparing them” (priority 1998, published 2002)

Test: Dissolution time: time required fully to dissolve 1 gram of powder into 100 ml of water
Assay type: physicochemical
Details: 1 gram into 100 ml of water at 20° C.; only with vigorous stirring
Description: The dissolution rate of the resulting powder is defined by the dissolution time, viz. the time required fully to dissolve 1 gram thereof into 100 ml of water at 20° C. The dissolution time of the calcium salts compositions of the invention is not more than 60 seconds and preferably not more than 10 seconds. The dissolution time of the powder obtained according to Example 1 is found to be 3.036 sec, while the dissolution time of the untreated calcium gluconate granules is 1.3 minutes, and this only when vigorous stirring is carried out to hasten as much as possible the dissolution. Therefore the powder of Example 1 is an instantly soluble powder, as this expression is to be construed in this, specification.

calcium gluconate showed a dissolution time of 1.3 min.
